These are literature values, as cited in patent US20080125428A1, “Cancer Treatment Method” (priority 2004, published 2008).

Each structure is given as a SMILES string.

This data set has as its system tumor cells overexpressing EGFR or erbB2. The settings on record: Rusnak et al., 2001b, Xia et al., 2002.

With `CS(=O)(=O)CCNCc1ccc(-c2ccc3ncnc(Nc4ccc(OCc5cccc(F)c5)c(Cl)c4)c3c2)o1` [GW572016, N-{3-chloro-4-[(3-fluorobenzyl)oxy]phenyl}-6-[5-({[2-(methanesulphonyl)ethyl]amino}methyl)-2-furyl]-4-quinazolinamine], the “kinase inhibition in human xenograft studies” value was “dose-dependent kinase inhibition”. The “selectivity for tumor cells overexpressing EGFR or erbB2” value (human xenograft studies) is given as “selectively inhibits tumor cells overexpressing EGFR or erbB2”.
